The supplement of paper PMC10307832

Key:
Assay in all cases: relative viability (nuclei count vs DMSO), 5 days (fraction); higher = more cells survive
[1] = compound: CC1CC(=O)N(C2=CN=C(N=C2N1C3CCCC3)NC4=C(C=C(C=C4)C(=O)NC5CCN(CC5)C)OC)C [NPK76-II-72-1] + CC(C)C[C@H](NC(=O)[C@H](Cc1ccccc1)NC(=O)c1cnccn1)B(O)O [Bortezomib] (partner 0.002 µM)
Method in brief: (§1)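 Lung cancer cell lines in 1536-well plates got either a single drug or a fixed anchor-drug dose together with five library-drug doses (not always all listed) in √10 steps, by pin tool, on the day after seeding. Nuclei were counted after 5 days, and relative viability is the treated-to-vehicle ratio of nuclei counts. Values are medians of duplicate plates.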

[2] = compound: CC1CC(=O)N(C2=CN=C(N=C2N1C3CCCC3)NC4=C(C=C(C=C4)C(=O)NC5CCN(CC5)C)OC)C [NPK76-II-72-1] + O=C(CCCCCCC(=O)Nc1ccccc1)NO [Vorinostat] (partner 1 µM)
Method in brief: as §1

[3] = compound: CC[C@@H]1C(=O)N(C)c2cnc(Nc3ccc(C(=O)NC4CCN(C)CC4)cc3OC)nc2N1C1CCCC1 [BI-2536] + N=C(N)NC(=N)NCCc1ccccc1 [Phenformin] (partner 250 µM)
Method in brief: as §1

[4] = compound: CC[C@@H]1C(=O)N(C)c2cnc(Nc3ccc(C(=O)NC4CCN(C)CC4)cc3OC)nc2N1C1CCCC1 [BI-2536] + NC(=O)Nc1cc(-c2cccc(F)c2)sc1C(=O)N[C@H]1CCCNC1 [AZD7762] (partner 0.2 µM)
Method in brief: as §1

With NCI-H2087 the relative viability ([1]; first compound 0.01 µM) was 0.941, the relative viability ([1]; first compound 0.03162 µM) was 0.861 and the relative viability ([1]; first compound 0.1 µM) was 0.63. The relative viability ([1]; first compound 0.3162 µM) was 0.737, the relative viability ([1]; first compound 1 µM) was 0.82 and the relative viability ([2]; first compound 0.01 µM) was 0.569. It also gave a relative viability ([2]; first compound 0.03162 µM) of 0.854, a relative viability ([2]; first compound 0.1 µM) of 0.572 and a relative viability ([2]; first compound 0.3162 µM) of 0.485. It also gave a relative viability ([2]; first compound 1 µM) of 0.814, a relative viability ([3]; first compound 0.01 µM) of 0.477 and a relative viability ([3]; first compound 0.03162 µM) of 0.503. For the same cell line, the relative viability ([3]; first compound 0.1 µM) was 0.173, the relative viability ([3]; first compound 0.3162 µM) was 0.0945 and the relative viability ([3]; first compound 1 µM) was 0.102. The relative viability ([4]; first compound 0.01 µM) was 1.26, the relative viability ([4]; first compound 0.03162 µM) was 1.45 and the relative viability ([4]; first compound 0.1 µM) was 1.23. It also gave a relative viability ([4]; first compound 0.3162 µM) of 0.111 and a relative viability ([4]; first compound 1 µM) of 0.114.

NCI-H1437 gave a relative viability ([1]; first compound 0.01 µM) of 0.473, a relative viability ([1]; first compound 0.03162 µM) of 0.445 and a relative viability ([1]; first compound 0.1 µM) of 0.425. For the same cell line, the relative viability ([1]; first compound 0.3162 µM) was 0.409, the relative viability ([1]; first compound 1 µM) was 0.494 and the relative viability ([2]; first compound 0.01 µM) was 0.779. It also gave a relative viability ([2]; first compound 0.03162 µM) of 0.907, a relative viability ([2]; first compound 0.1 µM) of 0.736 and a relative viability ([2]; first compound 0.3162 µM) of 0.748. The relative viability ([2]; first compound 1 µM) was 0.894, the relative viability ([3]; first compound 0.01 µM) was 0.289 and the relative viability ([3]; first compound 0.03162 µM) was 0.23. It also gave a relative viability ([3]; first compound 0.1 µM) of 0.145, a relative viability ([3]; first compound 0.3162 µM) of 0.143 and a relative viability ([3]; first compound 1 µM) of 0.154. For the same cell line, the relative viability ([4]; first compound 0.01 µM) was 1.01, the relative viability ([4]; first compound 0.03162 µM) was 0.892 and the relative viability ([4]; first compound 0.1 µM) was 1.03. The relative viability ([4]; first compound 0.3162 µM) was 0.141 and the relative viability ([4]; first compound 1 µM) was 0.163.

ABC-1 was tested, and the relative viability ([1]; first compound 0.01 µM) was 0.272, the relative viability ([1]; first compound 0.03162 µM) was 0.306 and the relative viability ([1]; first compound 0.1 µM) was 0.299. It also gave a relative viability ([1]; first compound 0.3162 µM) of 0.254, a relative viability ([1]; first compound 1 µM) of 0.358 and a relative viability ([2]; first compound 0.01 µM) of 1. For the same cell line, the relative viability ([2]; first compound 0.03162 µM) was 1.13, the relative viability ([2]; first compound 0.1 µM) was 0.356 and the relative viability ([2]; first compound 0.3162 µM) was 1.36. For the same cell line, the relative viability ([2]; first compound 1 µM) was 1.07, the relative viability ([3]; first compound 0.01 µM) was 0.307 and the relative viability ([3]; first compound 0.03162 µM) was 0.256. It also gave a relative viability ([3]; first compound 0.1 µM) of 0.222, a relative viability ([3]; first compound 0.3162 µM) of 0.196 and a relative viability ([3]; first compound 1 µM) of 0.191. For the same cell line, the relative viability ([4]; first compound 0.01 µM) was 0.576, the relative viability ([4]; first compound 0.03162 µM) was 0.871 and the relative viability ([4]; first compound 0.3162 µM) was 0.922. It also gave a relative viability ([4]; first compound 1 µM) of 0.301.

NCI-H838 showed a relative viability ([1]; first compound 0.01 µM) of 0.768, a relative viability ([1]; first compound 0.03162 µM) of 0.885 and a relative viability ([1]; first compound 0.1 µM) of 0.988. The relative viability ([1]; first compound 0.3162 µM) was 0.771, the relative viability ([1]; first compound 1 µM) was 0.715 and the relative viability ([2]; first compound 0.01 µM) was 0.69. For the same cell line, the relative viability ([2]; first compound 0.03162 µM) was 0.73, the relative viability ([2]; first compound 0.1 µM) was 0.717 and the relative viability ([2]; first compound 0.3162 µM) was 0.684. The relative viability ([2]; first compound 1 µM) was 0.672, the relative viability ([3]; first compound 0.01 µM) was 0.571 and the relative viability ([3]; first compound 0.03162 µM) was 0.329. For the same cell line, the relative viability ([3]; first compound 0.1 µM) was 0.116, the relative viability ([3]; first compound 0.3162 µM) was 0.116 and the relative viability ([3]; first compound 1 µM) was 0.105. It also gave a relative viability ([4]; first compound 0.01 µM) of 0.905, a relative viability ([4]; first compound 0.03162 µM) of 0.803 and a relative viability ([4]; first compound 0.1 µM) of 0.831. For the same cell line, the relative viability ([4]; first compound 0.3162 µM) was 0.634 and the relative viability ([4]; first compound 1 µM) was 0.634.
